Measured values reported in ChEMBL document CHEMBL1201862, “PubChem BioAssay data set” (2004).
The source made the active and inactive calls.

Assays:
[1] = target: T1, DNA dC->dU-editing enzyme APOBEC-3A (Homo sapiens, UniProt P31941); assay: SAR analysis of small molecule inhibitors of APOBEC3A DNA Deaminase via a fluorescence-based single-stranded DNA deaminase assay - Set 2.; type: functional; conditions: read-out: IC50_Mean
[2] = target: T2, DNA dC->dU-editing enzyme APOBEC-3G (Homo sapiens, UniProt Q9HC16); assay: SAR analysis of small molecule inhibitors of APOBEC3G DNA Deaminase via a fluorescence-based single-stranded DNA deaminase assay - Set 2.; type: functional; conditions: read-out: IC50_Mean
[3] = target: T2, DNA dC->dU-editing enzyme APOBEC-3G; assay: APOBEC3G deaminase inhibitors, SAR follow-up, biochemical, fluorescence, single-stranded DNA substrate (AID 602136); type: functional; conditions: read-out: IC50_Mean
[4] = target: T1, DNA dC->dU-editing enzyme APOBEC-3A; assay: SAR analysis of small molecule inhibitors of APOBEC3A DNA Deaminase via a fluorescence-based single-stranded DNA deaminase assay.; type: functional; conditions: read-out: IC50_Mean
CHO-K1 = assay: (§1) Counterscreen for antagonists of the orexin 1 receptor (OX1R; HCRTR1): Homogeneous time resolved fluorescence (HTRF)-based cell-based dose response assay to identify antagonists of the parental CHO-K1 cell line. [Related pubchem assays (depositor defined):AID434989, AID435008, AID463079, AID485270, AID492963, AID492964, AID492965, AID493232, AID504699, AID504701]; type: functional; conditions: Cricetulus griseus
[5] = as §1, with “Fluorescence-based” for “Homogeneous time resolved fluorescence (HTRF)-based”, “cell-based high throughput” for “cell-based”, “CHO” for “CHO-K1”; type: functional
[6] = target: T3, Orexin/Hypocretin receptor type 1 (Homo sapiens, UniProt O43613); assay: Homogeneous Time Resolved Fluorescence (HTRF)-based cell-based high throughput dose response assay for antagonists of the orexin 1 receptor (OX1R; HCRTR1). [Related pubchem assays (depositor defined):AID434989, AID435008, AID463079, AID485270, AID492963, AID492964, AID492965, AID493232, AID504717, AID504718]; type: functional
[7] = target: T3, Orexin/Hypocretin receptor type 1; assay: Fluorescence-based cell-based high throughput dose response assay for antagonists of the orexin 1 receptor (OX1R; HCRTR1). [Related pubchem assays (depositor defined):AID434989, AID435008, AID463079, AID485270, AID492963, AID492964, AID492965, AID493232, AID504717, AID504718]; type: functional
Orexin receptor type 2 [8] = target: T4, Orexin receptor type 2 (Homo sapiens, UniProt O43614); assay: Counterscreen assay for antagonists of the orexin 1 receptor (OX1R; HCRTR1): Fluorescence-based cell-based dose response assay for antagonists of the orexin 2 receptor (OX2R; HCRTR2), run by assay provider.; type: functional
Orexin receptor type 2 [9] = target: T4, Orexin receptor type 2; assay: Counterscreen assay for antagonists of the orexin 1 receptor (OX1R; HCRTR1): Homogeneous Time Resolved Fluorescence (HTRF)-based cell-based dose response assay for antagonists of the orexin 2 receptor (OX2R; HCRTR2), run by assay provider.; type: functional
[10] = target: Vascular endothelial growth factor receptor 2 (Homo sapiens, UniProt P35968); type: functional
Aurora kinase B = Aurora kinase B (Homo sapiens, UniProt Q96GD4); type: functional
[11] = target: Sphingosine 1-phosphate receptor 1 (Homo sapiens, UniProt P21453); assay: Late-stage fluorescence-based dose-response cell-based counterscreen assay to identify agonists of the Sphingosine 1-Phosphate Receptor 4 (S1P4): Sphingosine 1-Phosphate Receptor 1 (S1P1) agonist assay Set 2.; type: functional
[12] = target: Sphingosine 1-phosphate receptor 5 (Homo sapiens, UniProt Q9H228); assay: S1P5 receptor agonists, human, late-stage follow-up, counter-screen for S1P4 agonist project, cell-based, fluorescence, set 2 (AID 504867); type: functional
[13] = target: Sphingosine 1-phosphate receptor 3 (Homo sapiens, UniProt Q99500); assay: Late-stage fluorescence-based dose-response cell-based counterscreen assay to identify agonists of the Sphingosine 1-Phosphate Receptor 4 (S1P4): Sphingosine 1-Phosphate Receptor 3 (S1P3) agonist assay Set 2.; type: functional
[14] = target: Sphingosine 1-phosphate receptor 2 (Homo sapiens, UniProt O95136); assay: S1P2 receptor agonists, human, late-stage follow-up, counter-screen for S1P4 agonist project, cell-based, fluorescence, set 2 (AID 504873); type: functional
[15] = A cell-based HTS for delayed death inhibitors of the malarial parasite plastid Measured in Microorganism System Using Plate Reader - 2126-02_Inhibitor_Dose_DryPowder_Activity.; type: functional, organism-based
[16] = A cell-based HTS for delayed death inhibitors of the malarial parasite plastid Measured in Microorganism System Using Plate Reader - 2126-01_Inhibitor_Dose_DryPowder_Activity.; type: functional, organism-based
[17] = target: Protein disulfide-isomerase (Homo sapiens, UniProt P07237); assay: PDI inhibitors, insulin aggregation turbidity, dose response, biochemical, absorbance, cherry-picked samples (AID 602350); type: functional
[18] = target: Multidrug resistance protein CDR2 (Candida albicans (strain SC5314 / ATCC MYA-2876) (Yeast), UniProt P78595); assay: CaCDR2 efflux pump inhibitors in yeast, dose response, S. cerevisiae AD1-8u, singleplex, Cherry Pick1 hits (AID 588604); type: functional
[19] = target: Ribosomal protein S6 kinase alpha-3 (Homo sapiens, UniProt P51812); type: functional;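 note: measured within a kinome-wide profiling panel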
[20] = target: Protein kinase C zeta type (Homo sapiens, UniProt Q05513); type: functional;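 note: measured as one member of a broad kinase profiling panel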
[21] = target: Serine/threonine-protein kinase PLK3 (Homo sapiens, UniProt Q9H4B4); type: functional
[22] = target: RAC-gamma serine/threonine-protein kinase (Homo sapiens, UniProt Q9Y243); type: functional
[23] = target: 5'-AMP-activated protein kinase catalytic subunit alpha-1 (Homo sapiens, UniProt Q13131); type: functional
[24] = target: Protein kinase C delta type (Homo sapiens, UniProt Q05655); type: functional
[25] = target: Ribosomal protein S6 kinase beta-1 (Homo sapiens, UniProt P23443); type: functional;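 note: measured as one member of a kinome-wide profiling panel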
[26] = target: Serine/threonine-protein kinase Chk2 (Homo sapiens, UniProt O96017); type: functional;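 note: CHEK2 entry within a kinome-wide screening panel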
[27] = target: Cyclin-dependent kinase 2 (Homo sapiens, UniProt P24941); type: functional;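 note: CDK2 measured as one member of a broad kinome profiling panel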
[28] = target: Serine/threonine-protein kinase pim-1 (Homo sapiens, UniProt P11309); type: functional
Aurora kinase A = Aurora kinase A (Homo sapiens, UniProt O14965); type: functional;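 note: value from the Navigating the Kinome kinase panel profiling, panel entry STK6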
[29] = target: MAP kinase-activated protein kinase 2 (Homo sapiens, UniProt P49137); type: functional;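 note: measured as one member of a kinome-wide kinase panel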
[30] = target: Mast/stem cell growth factor receptor Kit (Homo sapiens, UniProt P10721); type: functional;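 note: KIT entry within a kinase panel assay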
[31] = target: Casein kinase II subunit alpha (Homo sapiens, UniProt P68400); type: functional
[32] = target: Serine/threonine-protein kinase PAK 4 (Homo sapiens, UniProt O96013); type: functional;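 note: value obtained within a kinome profiling panel in which PAK4 was one of the panel members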
[33] = target: MAP/microtubule affinity-regulating kinase 3 (Homo sapiens, UniProt P27448); type: functional;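 note: MARK3 affinity measured as one member of a kinome panel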
[34] = target: Protein kinase C gamma type (Homo sapiens, UniProt P05129); type: functional
[35] = target: Serine/threonine-protein kinase Chk1 (Homo sapiens, UniProt O14757); type: functional;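 note: measured as one member of a kinome-wide kinase profiling panel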
Ephrin type-A receptor 2 = Ephrin type-A receptor 2 (Homo sapiens, UniProt P29317); type: functional;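 note: EPHA2 tested as one member of a kinome-wide kinase panel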
[36] = target: RAC-alpha serine/threonine-protein kinase (Homo sapiens, UniProt P31749); type: functional;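 note: AKT1 affinity measured as one member of a kinome-wide kinase profiling panel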
[37] = target: Cyclin-dependent kinase 1 (Homo sapiens, UniProt P06493); type: functional;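 note: Kinome-wide panel profiling, with the target listed as panel member CDC2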
[38] = target: Serine/threonine-protein kinase PLK1 (Homo sapiens, UniProt P53350); type: functional;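 note: PLK1 measured as one member of a kinome-wide profiling panel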
[39] = target: Glycogen synthase kinase-3 beta (Homo sapiens, UniProt P49841); type: functional;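 note: value comes from a broad kinome profiling panel, with GSK3B as the panel member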
[40] = target: cAMP-dependent protein kinase catalytic subunit alpha (Homo sapiens, UniProt P17612); type: functional
[41] = target: Serine/threonine-protein kinase MRCK alpha (Homo sapiens, UniProt Q5VT25); type: functional
[42] = target: Fibroblast growth factor receptor 1 (Homo sapiens, UniProt P11362); type: functional
[43] = target: Tyrosine-protein kinase Lyn (Homo sapiens, UniProt P07948); type: functional;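 note: lyn as one member of a kinase panel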
[44] = target: Tyrosine-protein kinase Blk (Homo sapiens, UniProt P51451); type: functional;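 note: obtained as one member of a kinome-wide kinase assay panel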
[45] = target: 3-phosphoinositide-dependent protein kinase 1 (Homo sapiens, UniProt O15530); type: functional;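 note: value comes from the Navigating the Kinome panel, PDPK1 member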
[46] = target: Fibroblast growth factor receptor 3 (Homo sapiens, UniProt P22607); type: functional
[47] = target: Receptor tyrosine-protein kinase erbB-4 (Homo sapiens, UniProt Q15303); type: functional;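 note: ERBB4 member of a kinome-wide kinase profiling panel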
[48] = target: Inhibitor of nuclear factor kappa-B kinase subunit beta (Homo sapiens, UniProt O14920); type: functional
[49] = target: Serine/threonine-protein kinase D3 (Homo sapiens, UniProt O94806); type: functional;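 note: determined within a kinase panel screen, with PRKCN as the panel member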
[50] = target: Mitogen-activated protein kinase 8 (Homo sapiens, UniProt P45983); type: functional;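 note: value comes from one member of a kinome-wide kinase profiling panel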
LIM domain kinase 1 = LIM domain kinase 1 (Homo sapiens, UniProt P53667); assay: Navigating the Kinome. Panel member name: LIMK1; type: functional

Chain of Serine/threonine-protein kinase pim-1 (P11309 whole entry): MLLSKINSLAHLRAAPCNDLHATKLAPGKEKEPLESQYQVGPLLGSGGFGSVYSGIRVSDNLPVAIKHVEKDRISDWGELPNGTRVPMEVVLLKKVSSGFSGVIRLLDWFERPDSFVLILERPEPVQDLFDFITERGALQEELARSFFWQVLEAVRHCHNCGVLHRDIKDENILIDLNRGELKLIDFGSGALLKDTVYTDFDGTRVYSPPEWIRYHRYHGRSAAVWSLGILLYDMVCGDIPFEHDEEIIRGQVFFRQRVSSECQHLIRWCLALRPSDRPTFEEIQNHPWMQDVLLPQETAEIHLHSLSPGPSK
Chain of 5'-AMP-activated protein kinase catalytic subunit alpha-1 (Q13131 whole entry): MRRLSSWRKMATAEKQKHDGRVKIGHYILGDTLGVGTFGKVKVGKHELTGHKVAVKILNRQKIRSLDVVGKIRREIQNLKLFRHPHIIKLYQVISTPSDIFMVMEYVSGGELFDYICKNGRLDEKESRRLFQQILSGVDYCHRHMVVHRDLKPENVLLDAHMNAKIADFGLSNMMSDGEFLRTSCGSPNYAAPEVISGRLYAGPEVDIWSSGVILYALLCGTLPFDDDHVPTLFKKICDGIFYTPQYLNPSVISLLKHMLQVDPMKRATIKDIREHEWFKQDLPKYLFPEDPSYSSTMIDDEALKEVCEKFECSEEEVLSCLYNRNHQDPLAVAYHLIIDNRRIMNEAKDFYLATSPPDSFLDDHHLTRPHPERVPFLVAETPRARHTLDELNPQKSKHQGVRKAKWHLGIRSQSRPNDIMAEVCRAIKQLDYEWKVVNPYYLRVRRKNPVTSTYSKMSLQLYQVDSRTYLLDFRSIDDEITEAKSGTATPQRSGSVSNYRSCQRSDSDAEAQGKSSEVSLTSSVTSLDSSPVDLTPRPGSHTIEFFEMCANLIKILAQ
T3 sequence (O43613 whole entry): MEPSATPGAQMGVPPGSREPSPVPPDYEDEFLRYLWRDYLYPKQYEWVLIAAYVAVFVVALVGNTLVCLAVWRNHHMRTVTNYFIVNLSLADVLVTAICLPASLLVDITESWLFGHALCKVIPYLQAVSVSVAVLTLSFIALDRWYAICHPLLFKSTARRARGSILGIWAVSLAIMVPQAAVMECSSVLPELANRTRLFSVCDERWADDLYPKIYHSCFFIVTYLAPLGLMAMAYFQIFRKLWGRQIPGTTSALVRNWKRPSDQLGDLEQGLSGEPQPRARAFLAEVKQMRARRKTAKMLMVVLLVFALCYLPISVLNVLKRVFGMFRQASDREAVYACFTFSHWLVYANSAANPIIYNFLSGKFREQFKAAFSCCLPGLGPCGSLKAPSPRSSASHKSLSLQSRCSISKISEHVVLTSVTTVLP
Chain of Glycogen synthase kinase-3 beta (P49841 whole entry): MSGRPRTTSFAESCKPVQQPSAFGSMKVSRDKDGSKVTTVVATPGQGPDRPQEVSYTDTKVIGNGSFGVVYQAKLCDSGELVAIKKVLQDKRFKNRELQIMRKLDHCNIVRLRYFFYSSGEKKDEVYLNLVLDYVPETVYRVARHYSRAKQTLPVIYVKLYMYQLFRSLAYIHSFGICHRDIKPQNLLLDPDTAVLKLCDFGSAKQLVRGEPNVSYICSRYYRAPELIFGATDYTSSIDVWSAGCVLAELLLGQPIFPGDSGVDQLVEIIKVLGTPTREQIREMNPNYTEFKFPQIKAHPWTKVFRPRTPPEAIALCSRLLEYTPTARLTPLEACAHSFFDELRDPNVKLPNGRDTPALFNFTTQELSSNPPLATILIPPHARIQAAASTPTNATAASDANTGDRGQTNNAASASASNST
Chain of Mast/stem cell growth factor receptor Kit (P10721 whole entry): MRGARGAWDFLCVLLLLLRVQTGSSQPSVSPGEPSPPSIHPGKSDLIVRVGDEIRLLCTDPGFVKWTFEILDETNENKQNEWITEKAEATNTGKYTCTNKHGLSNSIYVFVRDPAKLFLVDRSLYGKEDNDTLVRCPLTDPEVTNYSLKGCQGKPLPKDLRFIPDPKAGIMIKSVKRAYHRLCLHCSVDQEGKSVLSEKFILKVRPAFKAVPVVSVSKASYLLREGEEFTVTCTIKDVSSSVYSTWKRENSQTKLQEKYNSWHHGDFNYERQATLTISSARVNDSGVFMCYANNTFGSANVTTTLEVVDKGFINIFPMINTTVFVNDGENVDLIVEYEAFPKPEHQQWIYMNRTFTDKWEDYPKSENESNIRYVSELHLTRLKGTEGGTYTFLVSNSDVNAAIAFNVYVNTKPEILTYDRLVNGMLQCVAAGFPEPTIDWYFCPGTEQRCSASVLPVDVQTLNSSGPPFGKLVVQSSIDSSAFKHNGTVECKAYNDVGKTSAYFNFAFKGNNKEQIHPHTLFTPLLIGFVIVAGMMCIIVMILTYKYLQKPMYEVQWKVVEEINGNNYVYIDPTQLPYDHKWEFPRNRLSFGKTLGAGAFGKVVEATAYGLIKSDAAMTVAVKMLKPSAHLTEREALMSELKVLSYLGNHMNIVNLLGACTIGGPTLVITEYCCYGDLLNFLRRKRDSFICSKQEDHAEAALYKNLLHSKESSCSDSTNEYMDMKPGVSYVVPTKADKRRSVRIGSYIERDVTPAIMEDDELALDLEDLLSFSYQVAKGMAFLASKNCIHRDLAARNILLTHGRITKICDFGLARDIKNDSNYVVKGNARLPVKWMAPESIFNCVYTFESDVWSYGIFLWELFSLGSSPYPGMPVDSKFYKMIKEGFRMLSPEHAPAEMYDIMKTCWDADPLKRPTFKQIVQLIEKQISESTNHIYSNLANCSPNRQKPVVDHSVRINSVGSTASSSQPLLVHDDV
Chain of Serine/threonine-protein kinase Chk1 (O14757 whole entry): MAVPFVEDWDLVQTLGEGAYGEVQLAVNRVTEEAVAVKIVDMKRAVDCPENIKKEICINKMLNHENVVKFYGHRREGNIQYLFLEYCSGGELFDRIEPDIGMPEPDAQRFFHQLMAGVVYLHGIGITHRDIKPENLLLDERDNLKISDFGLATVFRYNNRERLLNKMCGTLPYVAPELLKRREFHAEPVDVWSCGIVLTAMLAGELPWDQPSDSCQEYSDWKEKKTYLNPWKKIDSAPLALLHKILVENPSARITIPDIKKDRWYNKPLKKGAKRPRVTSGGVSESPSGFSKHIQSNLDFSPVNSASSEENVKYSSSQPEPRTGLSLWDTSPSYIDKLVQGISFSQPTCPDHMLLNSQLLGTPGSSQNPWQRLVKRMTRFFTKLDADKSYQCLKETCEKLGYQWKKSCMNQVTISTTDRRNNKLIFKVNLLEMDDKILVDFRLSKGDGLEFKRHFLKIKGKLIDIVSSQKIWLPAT
Chain of Protein kinase C delta type (Q05655 whole entry): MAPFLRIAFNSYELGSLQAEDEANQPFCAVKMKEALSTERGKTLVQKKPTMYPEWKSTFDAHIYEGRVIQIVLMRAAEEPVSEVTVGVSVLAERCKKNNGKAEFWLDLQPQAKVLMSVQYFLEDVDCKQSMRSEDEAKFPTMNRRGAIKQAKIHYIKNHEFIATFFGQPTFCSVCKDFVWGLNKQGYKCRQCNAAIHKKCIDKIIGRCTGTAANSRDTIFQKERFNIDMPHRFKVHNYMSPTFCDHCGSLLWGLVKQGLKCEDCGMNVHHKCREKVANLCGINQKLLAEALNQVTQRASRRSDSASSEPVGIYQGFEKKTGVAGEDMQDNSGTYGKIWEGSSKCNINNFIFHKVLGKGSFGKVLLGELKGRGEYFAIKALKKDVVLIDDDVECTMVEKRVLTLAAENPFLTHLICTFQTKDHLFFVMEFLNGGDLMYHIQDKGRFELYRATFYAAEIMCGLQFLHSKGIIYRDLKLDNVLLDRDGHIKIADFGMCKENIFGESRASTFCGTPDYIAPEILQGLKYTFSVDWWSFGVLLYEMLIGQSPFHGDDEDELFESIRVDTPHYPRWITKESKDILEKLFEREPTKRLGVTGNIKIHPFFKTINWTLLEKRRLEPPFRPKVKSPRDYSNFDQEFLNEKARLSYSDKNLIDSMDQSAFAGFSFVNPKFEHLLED
T4 sequence (O43614 whole entry): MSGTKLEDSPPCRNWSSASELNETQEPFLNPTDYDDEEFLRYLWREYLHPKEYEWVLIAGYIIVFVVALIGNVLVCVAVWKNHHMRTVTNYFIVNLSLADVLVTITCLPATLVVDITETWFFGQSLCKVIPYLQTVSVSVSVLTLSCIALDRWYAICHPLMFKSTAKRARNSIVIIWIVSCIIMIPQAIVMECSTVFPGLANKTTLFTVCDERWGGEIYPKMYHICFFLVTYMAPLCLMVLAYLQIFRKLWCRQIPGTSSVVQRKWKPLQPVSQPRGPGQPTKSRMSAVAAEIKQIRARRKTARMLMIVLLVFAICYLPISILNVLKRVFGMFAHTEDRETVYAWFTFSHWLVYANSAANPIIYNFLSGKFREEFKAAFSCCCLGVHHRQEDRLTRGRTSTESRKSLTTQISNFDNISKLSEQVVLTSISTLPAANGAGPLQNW

COc1cc(C=Nn2c(S)nnc2-c2[nH]nc3c2CCC3)ccc1O
active: IC50 [2] 732 nM | IC50 [3] 808 nM
inactive: IC50 [1] > 99 µM | IC50 [4] > 99 µM

CC(=O)Nc1cccc(OCC(=O)NC(C)c2ccc3ccccc3c2)c1 (stereo not drawn)
inactive: IC50 (CHO-K1) > 66.2 µM | IC50 [5] > 49.7 µM | IC50 (Orexin receptor type 2 [8]) 30 µM | IC50 (Orexin receptor type 2 [9]) > 50 µM
active: IC50 [6] 623 nM | IC50 [7] 9.01 µM

COc1cc(Nc2ncnc(Nc3cc[nH]n3)n2)cc(OC)c1OC
active: Ki [10] 3.98 µM | Ki (Aurora kinase B) 316 nM

C/N=C1/S/C(=C/c2cc(C)n(Cc3ccccc3)c2C)C(=O)N1C
inactive: EC50 [13] > 25 µM
active: EC50 [11] 720 nM | EC50 [12] 144 nM | EC50 [14] 3.65 µM

C[C@@H]1CN([C@@H](C)CO)C(=O)c2cc(NC(=O)Nc3ccccc3)ccc2O[C@@H](C)CCCCO[C@H]1CN(C)S(=O)(=O)c1ccccc1F
active: AC50 [15] 641 nM | AC50 [16] 924 nM

Cc1noc(C)c1S(=O)(=O)Nc1ccc2c(c1)CC(=O)N([C@@H](C)CO)C[C@H](C)[C@H](CN(C)S(=O)(=O)c1ccc(F)cc1)O2
active: AC50 [17] 19.5 µM

O=[N+]([O-])c1cc(/C=N\Nc2ccccn2)ccc1Cl
active: EC50 [18] 9.33 µM

COc1ccc(OC)c(CNC(=O)c2cc(N)c(C#N)c(OC(C)C)n2)c1
inactive: Ki [20] > 7.94 µM | Ki [21] > 7.94 µM | Ki [22] > 10 µM | Ki [24] > 7.94 µM | Ki [26] > 10 µM | Ki [27] > 7.94 µM | Ki [28] > 10 µM | Ki (Aurora kinase A) > 6.31 µM | Ki [29] > 7.94 µM | Ki [31] > 6.31 µM | Ki [32] > 5.01 µM | Ki [33] > 6.31 µM | Ki [34] > 7.94 µM | Ki [35] > 7.94 µM | Ki (Ephrin type-A receptor 2) > 7.94 µM | Ki [37] > 7.94 µM | Ki [38] > 7.94 µM | Ki [40] > 7.94 µM | Ki [41] > 10 µM
active: Ki [19] 5.01 µM | Ki [23] 7.94 µM | Ki [25] 501 nM | Ki [30] 1 µM | Ki [36] 6.31 µM | Ki [39] 1.58 µM

c1ccc(-c2n[nH]cc2-c2ccncc2)cc1
active: Ki [22] 10 µM | Ki [24] 2.51 µM | Ki [25] 2510 nM | Ki [28] 20 µM | Ki (Aurora kinase A) 6.31 µM | Ki [42] 10 µM | Ki [43] 2 µM | Ki [33] 7.94 µM | Ki [36] 7.94 µM | Ki [37] 10 µM | Ki [39] 0.251 µM | Ki [47] 1 µM | Ki [40] 0.794 µM | Ki [41] 1.26 µM
inactive: Ki [21] > 20 µM | Ki [23] > 25.1 µM | Ki [26] > 25.1 µM | Ki [29] > 20 µM | Ki [30] > 3.16 µM | Ki [31] > 15.8 µM | Ki [32] > 12.6 µM | Ki [44] > 3.98 µM | Ki [34] > 20 µM | Ki [35] > 20 µM | Ki (Ephrin type-A receptor 2) > 20 µM | Ki [45] > 10 µM | Ki [46] > 5.01 µM | Ki [38] > 20 µM | Ki [48] > 7.94 µM

CC(=O)Nc1cc(N)c(C#N)c(OCC(C)C)n1
active: Ki [49] 6.31 µM | Ki [50] 1.58 µM

COc1ccccc1NC(=O)c1cnn2c(-c3ccccc3)ccnc12
active: Ki [28] 5.01 µM | Ki (LIM domain kinase 1) 2.51 µM
